Columns and labels:
[1] = test system: mouse osteoblast line MC3T3; experiment: Flow cytometric analysis of SB216763-treated osteoblasts with anti-CD31 and anti-VE-cadherin antibodies; type: cell-based
Source text: A high throughput screen was generated by modifying the mouse osteoblast line MC3T3. Fetal liver kinase 1 (Flk1) promoter-driven enhanced green fluorescent protein (eGFP) was introduced into these osteoblasts. […] Several libraries of small molecules, including a FDA-approved drug library, a UCLA in-house collection, and a custom set of compounds were screened. These libraries contained more than 22,000 small molecules ranging from natural products to synthesized compounds. […] Using arrange of dose (1-10 μM), it is shown that the reduction of the osteogenic markers Cbfa1, osterix and osteocalcin and the induction of the endothelial markers CD34, VE-cadherin, CD31 and eNOS occurred in a dose-dependent manner (FIG. 1, Part E). Osteoblasts were then treated with 10 μM SB216763 and examined the time-course expression of these osteogenic and endothelial markers. […] It was further determined the specificity of endothelial differentiation by closely examining other vascular lineage markers including smooth muscle cells (SMCs), pericytes, and fibroblasts by using real-time PCR. […] Because GSK3 is important in glucose metabolism, the expression of genes related to glucose metabolism was determined in the SB216763-treated osteoblasts, such as casein kinase 2, glucose transporter 4, and insulin receptor substrates 1 and 2. […]

[2] = test system: vascular calcification in Mgp−/− mice; experiment: Late vascular calcification in Mgp−/− mice; type: in vivo, mouse
Experimental: It was next examined if SB216763 reversed osteogenesis in vascular calcification by treating Mgp^−/− mice at 4 weeks of age for 2 weeks (FIG. 5, Part F).
Mgp^+/− (B6.129S7-Mgptm1Kry/KbosJ), Col1α1^CreERT2 (B6.Cg-Tg(Col1α1-cre/ERT2)1Crm/J), GSK3β^flox/flox (B6.129(Cg)-Gsk3btm2Jrw/J) and Osx-Gfptg (B6.Cg-Tg(Sp7-tTA,tetO-EGFP/cre)1Amc/J) mice on C57BL/6J background were purchased from the Jackson Laboratory. Genotypes were confirmed by PCR, and experiments were performed with generation F4-F6. Littermates were used as wild type controls. All mice were fed a standard chow diet. The studies were reviewed and approved by the Institutional Review Board and conducted in accordance with the animal care guidelines set by the University of California, Los Angeles (UCLA). The investigation conformed to the National Research Council, Guide for the Care and Use of Laboratory Animals, Eighth Edition (Washington, D.C.: The National Academies Press, 2011).
MicroCT imaging was performed at the Crump Imaging Center at UCLA. All the samples were scanned on a high-resolution, volumetric microCT scanner (CT125). The image data were acquired with the following parameters: 10 μm isotropic voxel resolution; 200 ms exposure time; 2,000 views and 5 frames per view. The microCT-generated DICOM files were used to analyze the samples and to create volume renderings of the regions of interest. The raw data files were viewed using the MicroView 3-D volume viewer and analysis tool (GE Healthcare) and AltaViewer™ Software. Additionally, images of the samples were generated using SCIRun (Scientific Computing and Imaging Institute).

GFP+CD31+ aortic cells = experiment: Hindlimb ischemia model with GFP+CD31+ aortic cells of treated mice; type: in vivo, mouse; details: mice transplanted with GFP+CD31+ aortic cells of treated group
Experimental: The capacity of GFP+CD31+ aortic cells for vascular repair was examined by using hindlimb ischemia model. […] The murine model of hindlimb ischemia was performed as previously described. A 10 mm long incision of the skin was made towards the medial thigh. The femoral artery was exposed and separated from femoral vein and nerve. Silk sutures were used to tie the proximal and the distal end of femoral artery with double knots. The cells (5×10^5) were transplanted into the surgical area and the incision was closed. Laser Doppler perfusion imaging was used to monitor the blood flow at different time points. Histology and immunostaining were used to examine the vascularization 2 weeks after transplantation.

vascular repair = experiment: Hindlimb ischemia model in nude mice after cell transplantation; type: in vivo, mouse
Experimental: Then, same cells in a model of hindlimb ischemia in nude mice to evaluate the capacity of eGFP positive cells in vascular repair were tested. After ligation of the proximal and distal femoral artery, eGFP positive cells were transplanted (FIG. 2, Part F). Human aortic endothelial cells (HAECs) and osteoblasts were used as controls.
Tube formation assays in vitro was then tested. […] Cells into hindlimb ischemia mouse model were transplanted.
Laser Doppler perfusion imaging was performed using real-time microcirculation imaging system (Perimed). The imaging was conducted under normal ambient room lighting. 20×27 mm high resolution model was used with 1388×1038 pixels measurement camera and 752×580 pixels documentation camera as one image per second. The image resolution was set up as 20 μm/pixel and 21 images per frame until stopped. Windows based PIMSoft software (Perimed) was used to process the data.
The murine model of hindlimb ischemia was performed as previously described. A 10 mm long incision of the skin was made towards the medial thigh. The femoral artery was exposed and separated from femoral vein and nerve. Silk sutures were used to tie the proximal and the distal end of femoral artery with double knots. The cells (5×10^5) were transplanted into the surgical area and the incision was closed. Laser Doppler perfusion imaging was used to monitor the blood flow at different time points. Histology and immunostaining were used to examine the vascularization 2 weeks after transplantation.

[3] = Mgp−/− mice at 4 weeks of age treated for 2 weeks

With `Cn1cc(C2=C(c3ccc(Cl)cc3Cl)C(=O)NC2=O)c2ccccc21` [SB216763] the “treated osteoblasts expressing the endothelial markers CD31 and VE-cadherin” value [1] was “more than 85%”, the “CD31-positive cells co-expressing VE-cadherin and osterix, FACS” value [2, 3] was “decrease of CD31-positive cells that co-expressed VE-cadherin and osterix” and the “CD31-positive cells expressing VE-cadherin only, FACS” value [2, 3] was “increase of CD31-positive cells that expressed VE-cadherin only”. For the same compound, the “aortic calcification, microCT imaging” value [2, 3] was “reduction of aortic calcification”, the “histology of calcified areas of the aortas” value [2, 3] was “change in morphology in calcified areas of the aortas” and the “mineralization of whole aortic tissues, alizarin red staining” value [2, 3] was “reduction of mineralization”. The “total aortic calcium and mineral deposition” value [2, 3] was “decrease of total aortic calcium and mineral deposition”, the “osteogenic markers in aortic tissue, real-time PCR” value ([2]; treated Mgp−/− mice compared to non-treated mice) was “decrease of osteogenic markers” and the “limb blood flow, Laser Doppler perfusion imaging” value (GFP+CD31+ aortic cells) was “higher limb blood flow”. For the same compound, the “vascular density, histology” value (GFP+CD31+ aortic cells) was “increase in vascular density”, the “blood flow, Laser Doppler perfusion imaging” value (vascular repair; SB216763-treated cells with restoring SMAD1 vs controls) was “No difference was observed” and the “blood flow, Laser Doppler perfusion imaging” value (vascular repair; SB216763-treated osteoblasts with depletion of β-catenin vs cells without depletion) was “less blood flow”. The “vascular density, histology and immunostaining” value (vascular repair; transplanted eGFP positive cells) was “increase in vascular density” and the “limb blood flow, Laser Doppler perfusion imaging” value (vascular repair; transplanted eGFP positive cells compared to osteoblasts) was “significantly higher limb blood flow”.
